Key:
Format in all cases: cell-based, human
SW480 colon cancer cells [1] = experiment: Propidium iodide / BrdU cell cycle analysis of synchronized cells
Experimental: (§1) Cell synchronization. Synchronized cells were synchronized by double thymidine block. Cells were treated with […] thymidine for sixteen hours. The drug was removed and replaced by complete growth media for eight hours. Cells were treated for the second time with […] thymidine for sixteen hours. At this point, cells were treated and harvested.
Propidium iodide and BrdU flow cytometry assay. Cells were seeded at a density of 5×10^5 in a 6-well plate and treated for forty-eight to seventy-two hours. After treatment, floating cells were collected, and adherent cells were trypsinized, pelleted, washed with phosphate-buffered saline, and fixed in 70% ethanol overnight. For propidium iodide (PI) based Sub-G1 apoptosis analysis, cells were spun down after fixation and resuspended in phosphate-citric acid buffer (0.2M Na2HPO4+0.1M Citric Acid, pH 7.8) at room temperature for five minutes. The cell pellet was resuspended for staining with 50 μg/mL PI and 250 μg/mL ribonuclease (RNase A). For BrdU analysis, after cell fixation, cells were spun down and resuspended in one mL of 2N HCL with 0.5% Triton X-100 for thirty minutes at room temperature. Cells were pelleted, washed with phosphate-buffered saline, and resuspended in 20 μL BrdU antibody (BD Biosciences, cat no. 347580) diluted in 0.5% Tween 20/PBS/5% bovine serum albumin for thirty minutes at room temperature. Cells were then spun down and resuspended in 140 μg/mL goat-anti mouse Alexa Fluor 488 (#A-11008, Thermo Fisher Scientific, Waltham, Mass., USA) in 0.5% Tween 20 in phosphate-buffered saline/5% bovine serum albumin for thirty minutes at room temperature. Cells were then spun down and resuspended in 5 μg/mL PI: 250 μg/mL RNase A solution. Samples were analyzed on an Epics Elite Epics flow cytometer (Coulter-Beckman).
BrdU analysis gating. Cell aggregates were gated out in the PI Peak vs DNA PI histogram. BrdU lower limit intensity was set on the upper limit of the negative control. The no BrdU antibody assays and no goat-anti mouse Alexa Fluor 488 antibody assays were the negative controls. […] Gating was held constant throughout the samples within a given assay.

SW480 colon cancer cells [2] = experiment: Immunoblot of cell cycle markers; conditions: for M-phase marker pH3(Ser10) / pcdc2(Tyr15) and pcdc25c(Ser16) expression: combination with etoposide; for S-phase marker p-RPA-RPA2(S8) expression: synchronized SW480, time-course after release
Experimental: Immunoblotting (additional method). After treatment, floating cells were collected, and adherent cells were trypsinized, washed with phosphate-buffered saline, and lysed with RIPA buffer (Sigma-Aldrich, St. Louis, Mo., USA) for thirty minutes to one hour at 4° C. Protein lysates were pelleted. The supernatant was collected. Total protein per sample was determined using a Pierce™ BCA Protein Assay Kit (Thermo Fisher Scientific, Waltham, Mass., USA). Proteins were denatured using 1× NuPAGE® LDS sample buffer (Thermo Fisher Scientific, Waltham, Mass., USA) and reduced with 2-mercaptoethanol (Sigma-Aldrich, St. Louis, Mo., USA). Protein lysates were boiled for fifteen min at 95° C. After protein normalization, samples were loaded into NuPAGE™ Novex™ 4-12% Bis-Tris Protein Gels (Thermo Fisher Scientific, Waltham, Mass., USA). Gel electrophoresis was performed with NuPAGE™ MES SDS Running Buffer. Proteins were transferred onto an Immobilon-P membrane (PVDF, EMD Millipore, Taunton, Mass., USA) using a Bio-Rad system with a 10% Tris-Glycine and 10% methanol transfer buffer diluted in distilled and deionized water. Membranes were blocked with 10% milk in Tris-buffered saline with Tween 20 (TBST) solution. The membranes were incubated overnight with the primary antibody, washed with TBST, and incubated with secondary antibody for one hour. Primary antibody incubations were performed in 5% milk or 5% bovine serum albumin in TBST solution as per manufacturer instructions. Signal was detected using a chemiluminescent detection kit, followed by autoradiography. The following antibodies were used: p53 (1:1000, #sc-126, Santa Cruz Biotechnology, Santa Cruz, Calif., USA), p73 (1:1000, #A300-126A, Bethyl Laboratories), Noxa (1:250, #OP180, EMD Millipore, Taunton, Mass., USA), DR5 (#3696), cleaved PARP (#9546), phospho-RPA32/RPA2 (#54762), p-cdc2 (#9111), p-cdc25c, pH3 (#3377) (1:1,000; Cell Signaling Technology, Inc., Danvers, Mass. USA) and β-actin (1:10000, A5441, Sigma).
as §1

Noxa = Noxa protein expression by immunoblotting; conditions: for Noxa protein induction upon knockdown of ATF3/4: SW480 cells, 100 μM CB002 or 25 μM CB002-analog #4
Experimental: Immunoblotting. After treatment, cells were harvested by trypsinization, washed with phosphate-buffered saline, and lysed with RIPA buffer (Sigma-Aldrich) for thirty minutes to one hour at 4° C. Protein lysates were spun down. The supernatant was collected. Protein quantification was performed using a Pierce™ BCA Protein Assay Kit (Thermo Fisher Scientific, Waltham, Mass., USA). 1× NuPAGE® LDS sample buffer (Thermo Fisher Scientific, Waltham, Mass., USA) and 2-Mercaptoethanol as the reducing agent (Sigma-Aldrich) were added to protein lysates followed by boiling for fifteen minutes at 95° C. Equal total protein amounts samples were loaded into NuPAGE™ Novex™ 4-12% Bis-Tris Protein Gels (1.5 mm, Thermo Fisher Scientific, Waltham, Mass., USA). Gel electrophoresis was performed with NuPAGE™ MES SDS Running Buffer. Proteins were transferred onto an Immobilon-P membrane (PVDF, EMD Millipore, Taunton, Mass., USA) using a Bio-Rad system with a 10% Tris-Glycine and 10% methanol transfer buffer diluted in distilled and deionized water. After transfer, membranes were blocked with 10% milk in Tris-buffered saline with Tween 20 (TBST) solution. The membranes were then incubated overnight with the primary antibody, washed with TBST, and incubated with secondary antibody for one hour. Incubations were performed in 5% milk in TBST solution. Signal was detected by using a chemiluminescent detection kit, followed by autoradiography. The following antibodies were used: p53 (DO-1, 1:1000, Santa Cruz, Calif., USA), p73 (1:1000, Bethyl Laboratories), p21, and NOXA (1:250, EMD Millipore, Taunton, Mass., USA), DR5, FADD, cleaved caspase 3, cleaved caspase 8, cleaved PARP, and LC3B (1:1000, Cell Signaling Technology, Inc., Danvers, Mass. USA), and β-actin (1:10000, Sigma-Aldrich, St. Louis, Mo., USA).
Immunoblotting (additional method). […] Total protein per sample was determined using a Pierce™ BCA Protein Assay Kit (Thermo Fisher Scientific, Waltham, Mass., USA). […] Signal was detected using a chemiluminescent detection kit, followed by autoradiography. […]

Compound	S-phase delay, difference (SW480 colon cancer cells [1]; six-eight hours of treatment, combined with etoposide) [fold]	M-phase marker pH3(Ser10) (SW480 colon cancer cells [2]; synchronized SW480)	pcdc2(Tyr15) and pcdc25c(Ser16) expression (SW480 colon cancer cells [2]; synchronized SW480)	S-phase marker p-RPA-RPA2(S8) expression (SW480 colon cancer cells [2])	Noxa expression (Noxa; 24 hours, DLD-1 and SW480 cells)	Noxa protein induction upon knockdown of ATF3/4 (Noxa)	S-phase accumulation (SW480 colon cancer cells [1]; eight hours following release from synchronization)	increase of cells in S-phase (SW480 colon cancer cells [1]; twelve hours, PI and BrdU co-staining, compared to DMSO vehicle control) [%]	G2-phase cells versus etoposide (SW480 colon cancer cells [1]; twenty-four hours)	pcdc2(Tyr15) and pcdc25c(Ser16) protein expression (SW480 colon cancer cells [2]; single agent, synchronized SW480)	p21 (SW480 colon cancer cells [2]; time-course after synchronization release)	Cyclin A expression (SW480 colon cancer cells [2]; time-course, compared to DMSO and etoposide)
Cn1c(=O)c2[nH]c(Nc3ccccc3)nc2n(C)c1=O [CB002]	2	does not increase	decrease in expression	increase	induce Noxa expression	abrogated Noxa protein induction						
Cn1c(=O)c2[nH]c(Nc3cccc(C(F)(F)F)c3)nc2n(C)c1=O [CB002-analog #4]		does not increase	decrease in expression	increased compared to DMSO		abrogated Noxa protein induction	S-phase accumulation	30	no significant differences	decreased	increase	did not decrease over time

Source: patent publication US20230219957A1, “SMALL MOLECULE CB002-ANALOGES RESTORE THE P53 PATHWAY AND TARGET S-PHASE CHECKPOINT” (Brown University, priority 2020, published 2023)
